As usually defined, the melting point is the temperature, or range, at which the solid turns liquid. What is called IC50 is the concentration that inhibits the measured activity by half. A lower IC50 goes with greater potency.

Counter-ions that a name gives are not always drawn.

In one data set the target is T1, Human CCR5 receptor (Homo sapiens, UniProt P51681).
T1 construct: expressed in transfected cells
Briefly: Human CCR5 receptor-ligand binding assay (125I RANTES displacement). The following applies: 0.1 nM 125I RANTES, CHO-Gα16-hCCR5 cells, RT 2 h. An excerpt: Human CCR5 receptor (Genebank ID: 29169292) was cloned into mammalian expression vector, pTarget (Promega). The construct was transfected into CHO-Gα16 cells by using Fugene Reagent (Roche). Clones were selected under antibiotic pressure (G418 and Hygromycin) and sorted 4 times with a fluorescence activates cell sorter and a monoclonal antibody specific for CCR5 receptor (BD Biosciences Pharmigen, Mab 2D7, Cat. No. 555993). The clone with highest expression (100,000 copies per cell) was chosen for the binding assays.
Adherent cells in […] tissue culture flask (˜90% confluent) were harvested using 1 mM EDTA in PBS (phosphate-buffered saline) without Ca^2+ and Mg^2+. Cells were washed twice with PBS containing no Ca^2+ and Mg^2+. CHO-Gα16-hCCR5 cells were then resuspended (1×10^6/ml) in ice cold binding buffer (50 mM HEPES, 1 mM CaCl2, 5 mM MgCl2, 0.5% BSA, 0.05% NaN3, pH 7.24), pH 7.4), supplemented with freshly made 0.5% BSA and 0.05% NaN3.
Eighty μl CHO-Gα16-hCCR5 (1×10^6/ml) cells were added to 96 well plates. All dilutions were made in binding buffer (50 mM HEPES, 1 mM CaCl2, 5 mM MgCl2, 0.5% BSA, 0.05% NaN3, pH 7.24).
The plates were incubated on a cell shaker at RT for 2 h with a final concentration of 0.1 nM ^125I RANTES or ^125I MIP-1α or ^125I MIP-1β. The compound dilutions were made in PBS, 1% BSA. Total reaction volume was 100 μl per well. The test compounds were added to the cells prior to the addition of radioligand.
After incubation, the cells were harvested onto GF/C filter plates using Packard cell harvester. Filters were pretreated with 0.3% PEI/0.2% BSA for 30 min. The filter plate was washed rapidly 5 times with 25 mM HEPES, 500 mM NaCl, 1 mM CaCl2 and 5 mM MgCl2 adjusted to pH 7.1. Plates were dried in oven (70° C.) for 20 min, added with 40 μl scintillation fluid and sealed with Packard TopSeal-A. Packard Top Count was used to measure of the radioactivity for 1 min per well.
Total binding was determined with control wells added with radioisotope and buffer and the non-specific binding was determined using an excess cold RANTES to some of the control wells. Specific binding was determined by subtracting the non-specific form total binding. Results are expressed as the percentage of specific ^125I RANTES binding. IC50 values were determined using varying concentrations of the test ligand in triplicates and the data was analyzed using GraphPad Prism (GraphPad, San Diego, Calif.).

T1 sequence (P51681 whole entry): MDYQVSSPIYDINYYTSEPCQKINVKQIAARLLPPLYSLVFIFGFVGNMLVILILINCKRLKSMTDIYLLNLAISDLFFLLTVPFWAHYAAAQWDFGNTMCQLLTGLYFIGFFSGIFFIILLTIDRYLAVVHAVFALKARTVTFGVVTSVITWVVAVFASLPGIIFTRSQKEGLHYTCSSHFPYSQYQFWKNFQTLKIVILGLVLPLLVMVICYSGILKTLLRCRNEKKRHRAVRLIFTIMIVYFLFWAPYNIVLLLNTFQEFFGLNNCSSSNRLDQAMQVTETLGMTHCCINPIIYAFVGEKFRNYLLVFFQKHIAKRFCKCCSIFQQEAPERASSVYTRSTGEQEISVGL

Consider `Cc1cccc(C)c1C(=O)N1C[C@H]2CN(CCC(NC(=O)C3CCCC3)c3ccccc3)C[C@H]2C1` (stereo partly drawn) [Compound I-3, Cyclopentanecarboxylic acid {3-[5-(2,6-dimethyl-benzoyl)-hexahydro-pyrrolo[3,4-c]pyrrol-2-yl]-1-phenyl-propyl}-amide], for which the melting point was in the range of 60.9 to 63.9 °C.

As to `Cc1ncnc(C)c1C(=O)N1CC2CN(CCC(NC(=O)C3CCCC3)c3ccccc3)CC2C1` (stereo not drawn) [Compound I-29, Cyclopentanecarboxylic acid {3-[5-(4,6-dimethyl-pyrimidine-5-carbonyl)-hexahydro-pyrrolo[3,4-c]pyrrol-2-yl]-1-phenyl-propyl}-amide], the melting point lay within 48 to 49 °C. In addition, on Human CCR5 receptor, the IC50 was found to be 0.016 µM.

As for `Cc1ccnc(C)c1C(=O)N1CC2CN(CC[C@H](NC(=O)C3CCCC3)c3ccccc3)CC2C1` (stereo partly drawn) [Compound I-78], the melting point fell in the range of 68.8 to 73.6 °C. Further, the IC50 at Human CCR5 receptor is 0.037 µM.

Consider `Cc1cccc(C)c1C(=O)N1CC2CN(C(CO)CC(NC(=O)C3CCCC3)c3ccccc3)CC2C1` (stereo not drawn) [Compound I-360, Cyclopentanecarboxylic acid {3-[5-(2,6-dimethyl-benzoyl)-hexahydro-pyrrolo[3,4-c]pyrrol-2-yl]-4-hydroxy-1-phenyl-butyl}-amide], for which the melting point lay in the range of 78.9 to 84.9 °C.

For the compound `Cc1ncnc(C)c1C(=O)N1CC2CN(CCC(NC(=O)C3CCC(F)(F)CC3)c3ccccc3)CC2C1` (stereo not drawn) [Compound I-435, 4,4-Difluoro-cyclohexanecarboxylic acid {3-[5-(4,6-dimethyl-pyrimidine-5-carbonyl)-hexahydro-pyrrolo[3,4-c]pyrrol-2-yl]-1-phenyl-propyl}-amide], the melting point lay in the range of 131.8 to 133.2 °C.

Regarding `Cc1ncnc(C)c1C(=O)N1CC2CN(C(C)CC(NC(=O)C3CCC(F)(F)CC3)c3ccccc3)CC2C1` (stereo not drawn) [Compound I-448, 4,4-Difluoro-cyclohexanecarboxylic acid {3-[5-(4,6-dimethyl-pyrimidine-5-carbonyl)-hexahydro-pyrrolo[3,4-c]pyrrol-2-yl]-1-phenyl-butyl}-amide], the melting point lay in the range of 71.3 to 72.9 °C.

`Cc1ncnc(C)c1C(=O)N1CC2CN(C(C)C[C@H](NC(=O)C3CCC(F)(F)CC3)c3ccccc3)CC2C1` (stereo partly drawn) [Compound I-449]: the melting point fell in the range of 86.4 to 87 °C. The half-inhibitory concentration (IC50) at Human CCR5 receptor was 0.001 µM.

Consider `Cc1nc(OCC(=O)O)nc(C)c1C(=O)N1CC2CN(CC[C@H](NC(=O)C3CCCC3)c3ccccc3)CC2C1` (stereo partly drawn) [Compound I-466], for which the concentration for half-maximal inhibition (IC50) on Human CCR5 receptor came to 0.011 µM.

For `CC(=O)N1CCC(C(=O)N(CCCN2C[C@@H]3CN(C(=O)c4c(C)cccc4C)C[C@@H]3C2)c2ccc(C)c(Cl)c2)CC1` [II-1, 1-Acetyl-piperidine-4-carboxylic acid (3-chloro-4-methyl-phenyl)-{3-[5-(2,6-dimethyl-benzoyl)-hexahydro-pyrrolo[3,4-c]pyrrol-2-yl]-propyl}], the melting point fell in the range of 58.1 to 65.2 °C. The same compound showed an IC50 on Human CCR5 receptor of 0.0042 µM.

Regarding `CC(=O)N1CCC(C(=O)N(CCCN2CC3CN(C(=O)c4c(C)ccnc4C)CC3C2)c2ccc(C)c(Cl)c2)CC1` (stereo not drawn) [II-3, 1-Acetyl-piperidine-4-carboxylic acid (3-chloro-4-methyl-phenyl)-{3-[5-(2,4-dimethyl-pyridine-3-carbonyl)-hexahydro-pyrrolo[3,4-c]pyrrol-2-yl]-propyl}-amide], the melting point was in the range of 91.8 to 96.9 °C. The same compound registered an IC50 on Human CCR5 receptor of 0.0184 µM.

Take `CC(=O)N1CCC(C(=O)N(CCC(C)N2CC3CN(C(=O)c4c(C)ccnc4C)CC3C2)c2ccc(C)c(Cl)c2)CC1` (stereo not drawn) [II-36, 1-Acetyl-piperidine-4-carboxylic acid (3-chloro-4-methyl-phenyl)-{3-[5-(2,4-dimethyl-pyridine-3-carbonyl)-hexahydro-pyrrolo[3,4-c]pyrrol-2-yl]-butyl}-amide]: the melting point lay in the range of 60.9 to 62.4 °C.

The compound `Cc1ccc(N(CCCN2C[C@@H]3CN(C(=O)c4c(C)ccnc4C)C[C@@H]3C2)C(=O)Nc2ccc(Cl)cc2)cc1` [II-203, 3-(4-Chloro-phenyl)-1-{3-[(3aS,6aR)-5-(2,4-dimethyl-pyridine-3-carbonyl)-hexahydro-pyrrolo[3,4-c]pyrrol-2-yl]-propyl}-1-p-tolyl-urea] returned a melting point of 60.5 to 62.5 °C.

The compound `Cc1ccc(N(CCCN2CC3CN(C(=O)c4c(C)cccc4C)CC3C2)C(=O)C2CCS(=O)(=O)CC2)cc1Cl` (stereo not drawn) [II-279] yielded a melting point of 101.3 to 102.7 °C. At Human CCR5 receptor, this compound had an IC50 of 0.0015 µM.

At Human CCR5 receptor, `Cc1ccc(N(CCCN2CC3CN(C(=O)c4c(C)ncnc4C)CC3C2)C(=O)C2CCN(C(=O)C(=O)O)CC2)cc1Cl` (stereo not drawn) [II-303, [4-((3-Chloro-4-methyl-phenyl)-{3-[5-(4,6-dimethyl-pyrimidine-5-carbonyl)-hexahydro-pyrrolo[3,4-c]pyrrol-2-yl]-propyl}-carbamoyl)-piperidin-1-yl]-oxo-acetic acid, hydrochloride salt] gave a 50% inhibitory concentration (IC50) of 0.102 µM.

In turn, `CCOC(=O)c1[nH]c(C)c(S(=O)(=O)N2CC3CN(CCCN(C(=O)C4CCN(C(C)=O)CC4)c4ccc(C)c(Cl)c4)CC3C2)c1C` (stereo not drawn) [II-355] came in with an IC50 at Human CCR5 receptor of 0.0027 µM.

(Values after patent publication US7714018B2, “Heterocyclic antiviral compounds” (Roche Palo Alto LLC, priority 2004, dated 2010).)
